The test system of assay [1] is inflammation in the lungs. The following applies: in vivo; cited from earlier work.
Assay [2] relates to PC12 cells (conditioned media from 1321N1 human astrocytoma cells). Kind of assay: Neurite outgrowth of PC12 cells treated with conditioned media from 1321N1 cells. Particulars: conditioned media from treated 1321N1 cells; n=3. Type of assay: cell-based, rat. The source says: 1321N1 human brain astrocytoma cells are known to excrete neurologically beneficial compounds when stimulated with neurotrophic compounds and fungal extracts including lion's mane (Mori et al., Biological and Pharmaceutical Bulletin, 9: 1727-1732 (2008)). While some fungi have well established mechanisms by which they benefit neurological health, little is known about the role of psilocybin analogs specifically. Generally following the protocol of Mori et al., 2008, 1321N1 human astrocytoma cells were treated with psilocybin analogs, and conditioned media was collected and applied to differentiated rat pheochromocytoma PC12 cells to determine the resulting impact on neurite outgrowth.

The test system of assay [3] is Rat Induced Pluripotent Stem Cell (iPSC) neurons / cortical neurons from rat embryo. The experiment in a line: Neurite outgrowth and length in cultured neurons, beta III tubulin immunostaining, High-Content Screening (Neurofit). Type of assay: cell-based. The following applies: day 10. The procedure: Experiments were conducted to evaluate the neurotrophic effects of several purified tryptamines, H. erinaceum extracts, and the tryptamines combined with selected extracts of H. erinaceum. The tryptamines, baeocystin, norbaeocystin, and norpsilocin, were evaluated at final concentrations of 0.3 μg/mL, 1 μg/mL, 3 μg/mL, and 10 μg/mL. The experiments analyzed the H. erinaceum growth medium (rice or rice and oat hull fiber), the days of cultivation, the extract solvent (water, ethanol, or ethyl acetate), and the final concentration of the extract (31.3 μg/mL, 62.5 μg/mL, 125 μg/mL or 250 μg/mL). Finally, combinations of the three tryptamines and representative H. erinaceum extracts were combined and evaluated.
Experiments were conducted by Neurofit Contract Research Organization in Illkirch-Graffenstaden, France.
The following protocol was performed for each independent culture. Six culture experiments were performed for each condition.
Results are expressed as mean (±Standard Deviation).

The subject of assay [4] is hallucinogenic effects in humans. Particulars: human, cited from earlier work.
The test system of assay [5] is nerve growth factor (NGF) protein. The experiment in a line: ELISA of NGF protein in 1321N1 cells. Particulars: human 1321N1 cells; vs vehicle control; n=3; p<0.05. Type of assay: cell-based. The source says: Accordingly, preliminary research has started to reveal the mechanisms by which psilocybin analogs may confer neurotrophic benefits that facilitate neurite outgrowth.
(§1) See Ly et al., “Psychedelics Promote Structural and Functional Neural Plasticity,” Cell Rep.

Assay [6] relates to anti-inflammatory cytokine IL-10. The experiment in a line: ELISA of IL-10 in 1321N1 cells. Type of assay: cell-based. Particulars: human 1321N1 brain cells.
Text: as §1

“Also recorded” adds a separate entry of the source.

`COc1cc(C[C@@H](C)N)c(OC)cc1I` [(R)-2,5-dimethoxy-4-iodoamphetamine]: the “inflammation in the lungs” value in assay [1] was “prevent and reverse inflammation”.

With `CNCCc1c[nH]c2cccc(OP(=O)(O)O)c12` [baeocystin, 4-phosphoryloxy-N-methyltryptamine], the “neurite outgrowth induced by conditioned media” value (“neurite outgrowth induced” for short) in assay [2] was “induce neurite outgrowth”. The “Neurite length per neuron, % of control, Avg.” value in assay [3] (tryptamine 0.3 μg/mL) is reported as 119.24%; in assay [3] (tryptamine 1 μg/mL) it was 112.34%; in assay [3] (tryptamine 3 μg/mL), 118.42%; in assay [3] (tryptamine 10 μg/mL) it was 109.61%. The “Neurites per neuron, % of control, Avg.” value in assay [3] (tryptamine 0.3 μg/mL) worked out at 94.46%; in assay [3] (tryptamine 1 μg/mL), 93.66%; in assay [3] (tryptamine 3 μg/mL), 97.18%; in assay [3] (tryptamine 10 μg/mL), 96.87%. Further, in assay [4] (4 mg consumed, anecdotal (Gartz 1991)), the hallucinogenic effect result is recorded as “gentle hallucinogenic experience”. In addition, the hallucinogenic effects entry in assay [4] (oral consumption of 10 mg and 20 mg) was “did not produce any hallucinogenic effects”.

Take `NCCc1c[nH]c2cccc(OP(=O)(O)O)c12` [norbaeocystin, 4-phosphoryloxy-tryptamine]: the “neurite outgrowth induced” value in assay [2] was “induce neurite outgrowth”. The “expression of NGF protein” value in assay [5] is given as “increased expression of NGF protein; also recorded: induces the expression; also recorded: induction of NGF protein”.

As to `CNCCc1c[nH]c2cccc(O)c12` [norpsilocin, 4-hydroxy-N-methyl-tryptamine], the “neurite outgrowth induced” value in assay [2] was “induce neurite outgrowth”. The “neurite outgrowth compared with vehicle control and other treatments (in words)” value in assay [3] (at the concentrations tested) is “did not perform better than vehicle control”. In addition, the “Neurite length per neuron, % of control, Avg.” value in assay [3] (tryptamine 0.3 μg/mL) was 107.70%; in assay [3] (tryptamine 1 μg/mL), 101.13%; in assay [3] (tryptamine 3 μg/mL), 73.80%; in assay [3] (tryptamine 10 μg/mL), 7.65%. In addition, the “Neurites per neuron, % of control, Avg.” value in assay [3] (tryptamine 0.3 μg/mL) came to 83.77%; in assay [3] (tryptamine 1 μg/mL) it was 87.18%; in assay [3] (tryptamine 3 μg/mL), 79.36%; in assay [3] (tryptamine 10 μg/mL), 27.71%. For the same compound, in assay [6], the “expression of IL-10” value is recorded as “induces the expression”.

(Values after US20250325533A1, “TRYPTAMINE COMPOSITIONS FOR ENHANCING NEURITE OUTGROWTH” (TURTLE BEAR HOLDINGS, LLC, priority 2016, published 2025).)
